In patent publication US11957669B2, “Pharmaceutical composition containing (R)-N-[1-(3,5-difluoro-4-methansulfonylamino-phenyl)-ethyl]-3-(2-propyl-6-trifluoromethyl-pyridin-3-yl)-acrylamide” (AMOREPACIFIC CORPORATION, priority 2017, dated 2024):

Key:
[1] = Solubility of the compound of Formula (1) in various solvents (excess compound, shaking, HPLC); type: physicochemical; conditions: for solubility at 24 h: thermodynamic from solid
Protocol: An excess amount of the compound of Formula (1) was added to 1 mL of each solvent described in Table 1 below and stirred for 24 hours at 25° C. while shaking at 200 rpm (Shaking incubator, SI 600R, JEIO TECH, Korea). Thereafter, a centrifugation was performed at 10,000 rpm for 10 minutes, and the supernatant was filtered using a membrane filter (0.2 μm), then diluted moderately with methanol and analyzed by HPLC.

[2] = as above; type: physicochemical

## CCCc1nc(C(F)(F)F)ccc1/C=C/C(=O)N[C@H](C)c1cc(F)c(NS(C)(=O)=O)c(F)c1 [compound of Formula (1), (R)—N-[1-(3,5-difluoro-4-methanesulfonylamino-phenyl)-ethyl]-3-(2-propyl-6-trifluoromethyl-pyridin-3-yl)-acrylamide]
[1]; 25 °C, organic solvent or mixture, in dimethyl sulfoxide, diethylene glycol monoethyl ether, 2-pyrrolidone and polyethylene glycol (summary of Table 1)
  solubility at 24 h: ≥ 100 mg/mL
[1]; oil or lipid, in Cocoyl caprylocaprate, 25° C., 24 hours
  solubility at 24 h: 0.46 mg/mL
[1]; oil or lipid, in Corn oil, 25° C., 24 hours
  solubility at 24 h: 1.8 mg/mL
[1]; oil or lipid, in Ethyl oleate, 25° C., 24 hours
  solubility at 24 h: 1 mg/mL
[1]; oil or lipid, in Isopropyl myristate, 25° C., 24 hours
  solubility at 24 h: 1.18 mg/mL
[1]; oil or lipid, in Miglyol, 25° C., 24 hours
  solubility at 24 h: 1.4 mg/mL
[1]; oil or lipid, in Octyldodecanol, 25° C., 24 hours
  solubility at 24 h: 1.77 mg/mL
[1]; oil or lipid, in Oleic acid, 25° C., 24 hours
  solubility at 24 h: 0.43 mg/mL
[1]; oil or lipid, in Oleyl Alcohol, 25° C., 24 hours
  solubility at 24 h: 6.32 mg/mL
[1]; oil or lipid, in Propylene glycol monocaprylate, 25° C., 24 hours
  solubility at 24 h: 75 mg/mL
[1]; oil or lipid, in Propylene glycol monolaurate, 25° C., 24 hours
  solubility at 24 h: 7.75 mg/mL
[1]; oil or lipid, in Triglycerides, Medium chain, 25° C., 24 hours
  solubility at 24 h: 1.9 mg/mL
[1]; organic solvent or mixture, in 2-Pyrrolidinone, 25° C., 24 hours
  solubility at 24 h: 212 mg/mL
[1]; organic solvent or mixture, in Acetonitrile, 25° C., 24 hours
  solubility at 24 h: 108 mg/mL
[1]; organic solvent or mixture, in Caprylocaproyl polyoxyl-8 glycerides, 25° C., 24 hours
  solubility at 24 h: 46.7 mg/mL
[1]; organic solvent or mixture, in Diethylene glycol monoethyl ether, 25° C., 24 hours
  solubility at 24 h: 289 mg/mL
[1]; organic solvent or mixture, in Dimethyl sulfoxide, 25° C., 24 hours
  solubility at 24 h: 632 mg/mL
[1]; organic solvent or mixture, in Dimethylacetamide, 25° C., 24 hours
  solubility at 24 h: 80 mg/mL
[1]; organic solvent or mixture, in Ethanol, 25° C., 24 hours
  solubility at 24 h: 75.3 mg/mL
[1]; organic solvent or mixture, in Glycerol, 25° C., 24 hours
  solubility at 24 h: 0.84 mg/mL
[1]; organic solvent or mixture, in Lauroyl macrogol-32 glycerides, 25° C., 24 hours
  solubility at 24 h: 24.1 mg/mL
[1]; organic solvent or mixture, in Methanol, 25° C., 24 hours
  solubility at 24 h: 178 mg/mL
[1]; organic solvent or mixture, in Oleoyl polyoxyl-6 glycerides, 25° C., 24 hours
  solubility at 24 h: 4.36 mg/mL
[1]; organic solvent or mixture, in Poloxamer 124, 25° C., 24 hours
  solubility at 24 h: 66.7 mg/mL
[1]; organic solvent or mixture, in Polyethylene glycol(PEG) 300, 25° C., 24 hours
  solubility at 24 h: 146 mg/mL
[1]; organic solvent or mixture, in Polyethylene glycol(PEG) 400, 25° C., 24 hours
  solubility at 24 h: 168 mg/mL
[1]; organic solvent or mixture, in Polyethylene glycol-35 castor oil, 25° C., 24 hours
  solubility at 24 h: 2.7 mg/mL
[1]; organic solvent or mixture, in Polyoxyl 40 hydrogenated castor oil, 25° C., 24 hours
  solubility at 24 h: 36 mg/mL
[1]; organic solvent or mixture, in Polysorbate 20, 25° C., 24 hours
  solubility at 24 h: 48 mg/mL
[1]; organic solvent or mixture, in Polysorbate 40, 25° C., 24 hours
  solubility at 24 h: 37 mg/mL
[1]; organic solvent or mixture, in Polysorbate 60, 25° C., 24 hours
  solubility at 24 h: 35 mg/mL
[1]; organic solvent or mixture, in Polysorbate 80, 25° C., 24 hours
  solubility at 24 h: 11.8 mg/mL
[1]; organic solvent or mixture, in Propylene glycol, 25° C., 24 hours
  solubility at 24 h: 25 mg/mL
[1]; organic solvent or mixture, in Triacetin, 25° C., 24 hours
  solubility at 24 h: 56.5 mg/mL
[1]; in Purified water, 25° C., 24 hours
  solubility at 24 h: 0.05 mg/mL
[1]; water, background statement
  solubility: < 0.1 mg/mL
[2]; aqueous with cosolvent or surfactant or cyclodextrin, in a 10% (w/w) aqueous solution of PEG 400
  solubility: ~0.08 mg/mL
[2]; oil, background statement
  solubility in oil: significantly low solubility in oil
